Reference: publication PMC9221509, “Discovery of a Novel Antimicrobial Peptide, Temporin-PKE, from the Skin Secretion of Pelophylax kl. esculentus, and Evaluation of Its Structure-Activity Relationships” (Biomolecules, 2022)
No end group written: not given here.

Tested on: wax moth larvae
Test: Toxicity in wax moth larvae (uninfected)
Type: in vivo, Galleria mellonella
Settings: n = 9 in each group
Experimental: The antimicrobial activities of temporin-PKE and temporin-PKE-3K, in vivo, were studied in the wax moth larvae model. Wax moth larvae (Livefood UK Ltd., Rooks Bridge, UK), weighing 250 ± 25 mg, were divided into different groups (n = 9 in each group). […] After 2 h of exposure, 10 µL of peptide solution, with concentrations of 4, 8, and 16 mg/kg, was injected into the larvae in each group. PBS was utilised as the negative control, and 50 mg/kg vancomycin was selected as the positive control for MRSA. The survival rates of the larvae were recorded every 12 h for 120 h.

Row | Substance | survival of larvae injected with peptide (doses of 16 mg/kg) | mortality of larvae treated with peptide (highest test concentration, late stage) [%]
1 | FLPKIIGKLSSLLPKIF-NH2 [Temporin-PKE-3K] | totally survived | 
2 | FLPLIIGALSSLLPKIF-NH2 [Temporin-PKE] |  | 50
